Read-outs that look alike come from different tables or passages of the source.
Tests used:
[1] = Acute toxicity in mice on oral administration; assay type: in vivo; details: mouse, in vivo, read-out: LD 50 (acute toxicity)
Procedure: (§1) The acute toxicity was studied by oral administration to CDl mice of both sexes. The 50% lethal doses (LD 50) were determined graphically.
(§2) In a second series of experiments, the experimental technique was modified slightly: the compounds studied are dispersed in olive oil instead of being dissolved in water.

[2] = tested on: cholesterol in the serum; assay: Hypocholesterolaemic action in rats on oral administration (7 days); assay type: in vivo, male albino rats of the CDl race (Charles River); details: daily for 7 days
Procedure: (§3) The reference substances chosen were clofibrate or ethyl 2-p-chlorophenoxy-2-methyl-propionate, and halofenate or 2-acetamido-ethyl2-p-chlorophenyl-2-m-trifluoromethylphenoxy-acetate.
(§4) The hypocholesterolaemic action was determined on male albino rats of the CDl race (Charles River) weighing on average 250 g and fed normally, the rats being divided into batches each of 10 animals. Daily doses of one of the compounds studied were administered orally for 7 days. On the 8th day, the contents of cholesterol and triglycerides in the blood were determined and compared with those of animals of the untreated comparison group. In this way it was possible graphically to evaluate, for each compound, the 30% active dose (AD 30), that is to say the daily dose which causes a 30% reduction in the content of cholesterol or of triglycerides in the serum.
(§5) *AD 30 = daily dose which causes a 30% reduction in the content of
as §2

[3] = tested on: triglycerides in the serum; assay: Hypolipaemic activity (triglycerides) in rats on oral administration (7 days); assay type: in vivo, male albino rats of the CDl race (Charles River); details: daily for 7 days
Procedure: as §3, §4, §5, §2

[4] = tested on: CDl mice; assay: Acute toxicity in mice on oral administration; assay type: in vivo; details: Table III, second series, dispersed in olive oil
Procedure: as §1, §2

[5] = tested on: content of lipids (triglycerides and cholesterol) in the blood; assay: Hypolipaemic and hypocholesterolaemic effect compared with reference substances (summary); assay type: in vivo, rats
Procedure: as §3, §4, §2

[6] = Table II, first series (dissolved in water)
[7] = Table III, second series, dispersed in olive oil

With `NC(=O)C(Oc1ccc(F)c(C(F)(F)F)c1)c1ccc(Cl)cc1` (centres unmarked) [SL D 063] the LD50 ([1]; Table II, first series) was greater than 2000 mg/kg, the “AD 30, cholesterol (daily dose which causes a 30% reduction in serum cholesterol)” value [2, 6] was greater than 100 mg/kg and the “AD 30, triglycerides (daily dose which causes a 30% reduction in serum triglycerides)” value [3, 6] was 20 mg/kg.
In the case of `CC(=O)NCCOC(=O)C(Oc1ccc(F)c(C(F)(F)F)c1)c1ccc(F)cc1` (centres unmarked) [SL D 097, 2-acetylamino-ethyl 2-(4-fluoro-3-trifluoromethyl-phenoxy)-2-(4-fluoro-phenyl)acetate], the LD50 ([1]; Table II, first series) is reported as greater than 2000 mg/kg, the “AD 30, cholesterol (daily dose which causes a 30% reduction in serum cholesterol)” value [2, 6] is reported as greater than 100 mg/kg and the “AD 30, triglycerides (daily dose which causes a 30% reduction in serum triglycerides)” value [3, 6] is reported as 25 mg/kg.
In the case of `CCOC(=O)C(C)(C)Oc1ccc(Cl)cc1` [Clofibrate, ethyl 2-p-chlorophenoxy-2-methyl-propionate, reference compound], the LD50 ([1]; Table II, first series) is reported as 1300 mg/kg, the “AD 30, cholesterol (daily dose which causes a 30% reduction in serum cholesterol)” value [2, 6] is reported as 160 mg/kg and the “AD 30, triglycerides (daily dose which causes a 30% reduction in serum triglycerides)” value [3, 6] is reported as 200 mg/kg.
In the case of `O=C(OCc1cccnc1)C(Oc1ccc(F)c(C(F)(F)F)c1)c1ccc(Cl)cc1` (centres unmarked) [SL D 065], the LD50 ([1]; Table II, first series) is reported as greater than 2000 mg/kg, the “AD 30, cholesterol (daily dose which causes a 30% reduction in serum cholesterol)” value [2, 6] is reported as 55 mg/kg and the “AD 30, triglycerides (daily dose which causes a 30% reduction in serum triglycerides)” value [3, 6] is reported as 35 mg/kg.
With `CC1CC(OC(=O)C(Oc2ccc(F)c(C(F)(F)F)c2)c2ccc(Cl)cc2)CC(C)(C)C1` (centres unmarked) [SL-D.128, 3,3,5-Trimethyl-cyclohexyl-1 2-(4-fluoro-3-trifluoromethyl-phenoxy)-2-(4-chloro-phenyl)-acetate] the LD50 [1, 7] was greater than 2000 mg/kg, the “AD 30, cholesterol (daily dose which causes a 30% reduction in serum cholesterol)” value [2, 7] was 80 mg/kg and the “AD 30, triglycerides (daily dose which causes a 30% reduction in serum triglycerides)” value [3, 7] was 10 mg/kg.
In the case of `CC(=O)NCCOC(=O)C(Oc1cccc(C(F)(F)F)c1)c1ccc(Cl)cc1` (centres unmarked) [Halofenate, 2-acetamido-ethyl2-p-chlorophenyl-2-m-trifluoromethylphenoxy-acetate, reference compound], the LD50 ([1]; Table II, first series) is reported as 1800 mg/kg, the “AD 30, cholesterol (daily dose which causes a 30% reduction in serum cholesterol)” value [2, 6] is reported as 70 mg/kg and the “AD 30, triglycerides (daily dose which causes a 30% reduction in serum triglycerides)” value [3, 6] is reported as 50 mg/kg.
In the case of `O=C(O)C(Oc1ccc(F)c(C(F)(F)F)c1)c1ccc(Cl)cc1` (centres unmarked) [SL C 151, 2-(4-Chloro-phenyl)-2-(4-fluoro-3-trifluoromethyl-phenoxy)-acetic acid], the LD50 ([1]; Table II, first series) is reported as 2000 mg/kg, the “AD 30, cholesterol (daily dose which causes a 30% reduction in serum cholesterol)” value [2, 6] is reported as 50 mg/kg and the “AD 30, triglycerides (daily dose which causes a 30% reduction in serum triglycerides)” value [3, 6] is reported as 12 mg/kg.
With `CC(=O)NCCOC(=O)C(Oc1ccc(F)c(C(F)(F)F)c1)c1ccc(Cl)cc1` (centres unmarked) [SL C 149, 2-Acetylamino-ethyl 2-(4-chloro-phenyl)-2-(4-fluoro-3-trifluoromethyl-phenoxy)-acetate] the LD50 ([1]; Table II, first series) was 2000 mg/kg, the “LD 50 (acute toxicity)” value [4] was 2,000 mg/kg and the “AD 30, cholesterol (daily dose which causes a 30% reduction in serum cholesterol)” value [2, 6] was 17 mg/kg. The “AD 30, cholesterol (daily dose which causes a 30% reduction in serum cholesterol)” value [2, 7] was 30 mg/kg, the “AD 30, triglycerides (daily dose which causes a 30% reduction in serum triglycerides)” value [3, 6] was 12 mg/kg and the “AD 30, triglycerides (daily dose which causes a 30% reduction in serum triglycerides)” value [3, 7] was 20 mg/kg. For the same compound, the “times more active than clofibrate” value ([5]; relative to clofibrate) was “about 15 times” and the “times more active than halofenate” value ([5]; relative to halofenate) was “four”.
For `O=C(NCCO)C(Oc1ccc(F)c(C(F)(F)F)c1)c1ccc(Cl)cc1` (centres unmarked) [SL D 064, 2-(4-Fluoro-3-trifluoromethyl-phenoxy)-2-(4-chloro-phenyl)-N-(2-hydroxy-ethyl)-acetamide], the LD50 ([1]; Table II, first series) was greater than 2000 mg/kg, the “AD 30, cholesterol (daily dose which causes a 30% reduction in serum cholesterol)” value [2, 6] was greater than 100 mg/kg and the “AD 30, triglycerides (daily dose which causes a 30% reduction in serum triglycerides)” value [3, 6] was 20 mg/kg.
With `CN(C)C(=O)CCCOC(=O)C(Oc1ccc(F)c(C(F)(F)F)c1)c1ccc(Cl)cc1` (centres unmarked) [SL-D.126, N,N-Dimethyl-3-aminocarbonyl-propyl 2-(4-fluoro-3-trifluoromethyl-phenoxy)-2-(4-chloro-phenyl)-acetate] the LD50 [1, 7] was greater than 2000 mg/kg, the “AD 30, cholesterol (daily dose which causes a 30% reduction in serum cholesterol)” value [2, 7] was 70 mg/kg and the “AD 30, triglycerides (daily dose which causes a 30% reduction in serum triglycerides)” value [3, 7] was 20 mg/kg.
For `CN1CCC(OC(=O)C(Oc2ccc(F)c(C(F)(F)F)c2)c2ccc(Cl)cc2)CC1` (centres unmarked) [SL-D.123, 1-Methyl-piperidinyl-4 2-(4-fluoro-3-trifluoromethyl-phenoxy)-2-(4-chloro-phenyl)-acetate], the LD50 [1, 7] was greater than 2000 mg/kg, the “AD 30, cholesterol (daily dose which causes a 30% reduction in serum cholesterol)” value [2, 7] was 50 mg/kg and the “AD 30, triglycerides (daily dose which causes a 30% reduction in serum triglycerides)” value [3, 7] was 20 mg/kg.
In the case of `CCOC(=O)C(Oc1ccc(F)c(C(F)(F)F)c1)c1ccc(Cl)cc1` (centres unmarked) [SL C 150, Ethyl 2-(4-chloro-phenyl)-2-(4-fluoro-3-trifluoromethyl-phenoxy)-acetate], the LD50 ([1]; Table II, first series) is reported as greater than 2500 mg/kg, the “AD 30, cholesterol (daily dose which causes a 30% reduction in serum cholesterol)” value [2, 6] is reported as 20 mg/kg and the “AD 30, triglycerides (daily dose which causes a 30% reduction in serum triglycerides)” value [3, 6] is reported as 25 mg/kg.

— patent publication US4067996A, “Phenylacetic acid derivatives” (Synthelabo, priority 1974, dated 1978)
